Test: Pulmonary responses and safety in human subjects with mild, intermittent asthma (single-blind and double-blind parts)
Type: in vivo
Method: Methodology: The study consisted of 2 parts, a Single-Blind Part and a Double-Blind Part. The dose escalating, Single-Blind Part enrolled subjects with mild, intermittent asthma and consisted of 3 sequentially enrolled dosing cohorts with 8 subjects per cohort, such that Dosing Cohorts 1, 2 and 3 received binodenoson target doses of 0.5 μg/kg, 1.0 μg/kg and 1.5 μg/kg, respectively. All 8 subjects in a dosing cohort must have completed dosing at the assigned dose and a medical review of each cohort must have been acceptable before enrollment in the next cohort began. The Double-Blind Part was initiated only if the medical review of all safety data from the Single-Blind Part was acceptable. In the Double Blind Part, subjects with mild, intermittent asthma were randomly assigned in a 2:1 ratio to receive either binodenoson 1.5 μg/kg (n=40 planned) or placebo control (n=20 planned).
Both study parts were comprised of Screening, Treatment and Follow-Up Visits. The Screening Visit occurred 7 to 14 days before the Treatment Visit and consisted of a physical examination, medical history and application of inclusion and exclusion criteria. Subjects were instructed to measure peak expiratory flow (PEF) and asthma symptoms during a period of at least 7 days prior to the Treatment Visit. Subjects were to continue to meet all Screening eligibility criteria at the Treatment Visit and forced expiratory volume in 1 second (FEV1) was to remain within 80% of predicted for subjects to be eligible for dosing. All subjects enrolled in the Single-Blind Part and subjects randomized to receive binodenoson in the Double-Blind Part received 3 intravenous (IV) injections during the Treatment Visit: (1) placebo; (2) a low, challenge binodenoson dose to detect potential hypersensitivity reactions; and (3) an assigned binodenoson test dose. Subjects randomized to receive placebo in the Double Blind Part received 3 placebo injections. The Follow-Up Visit occurred 2 to 4 days following the Treatment Visit.
Eligible subjects were males or non-pregnant, nonlactating females ≧18 years of age weighing <350 pounds with a medical history of mild, intermittent asthma (as defined in the “Guidelines for the Diagnosis and Management of Asthma” prepared by the National Institutes of Health [NIH]) within 6 months of Screening.
Subjects were not eligible for the study if they had resting sitting systolic blood pressure (SBP)<100 or >140 mmHg, diastolic blood pressure (DBP)<60 or >90 mmHg, pulse rate >95 beats per minute (bpm), or a lower limit FEV1 at rest of <80% of the predicted value at Screening.
Dose and Mode of Administration: A stock solution of binodenoson (25 μg/mL) was administered as a bolus injection over 30 seconds (0.1 μg/kg=0.004 mL/kg of stock solution, 0.5 μg/kg=0.02 mL/kg of stock solution, 1.0 μg/kg=0.04 mL/kg of stock solution and 1.5 μg/kg=0.06 mL/kg of stock solution).
Duration of Treatment: Each subject received three 30-second bolus IV injections separated by ≧90 minutes in both the Single Blind and Double-Blind Parts of the study.
Criteria for Evaluation: The primary safety endpoint was clinically significant bronchoconstriction, defined as a ≧20% decrease in FEV1 from the predrug baseline following binodenoson administration. Other safety assessments included need for rescue medication, regular measurements of pulmonary function (FEV1 [% predicted], forced vital capacity [FVC] and forced expiratory flow during the middle half of the FVC [FEF25%-75%]), vital signs, pulse oximetry, physical examination findings, electrocardiogram (ECG) results, clinical laboratory results and adverse events.
Statistical Methods: All data collected in the study were summarized by treatment (placebo; 0.1 μg/kg binodenoson challenge; or 0.5, 1.0, or 1.5 μg/kg binodenoson) and study Part (Single-Blind or Double-Blind with univariate summaries). Continuous variables were summarized with descriptive statistics (n, mean, median, standard deviation [SD] and minimum and maximum). […]

[1] = double-blind, Binodenoson Group, second injection 0.1 μg/kg iv bolus, 15 minutes
[2] = double-blind, Binodenoson Group, second injection 0.1 μg/kg iv bolus, 90 minutes
[3] = double-blind, binodenoson 1.5 μg/kg group
[4] = double-blind, third injection 1.5 μg/kg
[5] = double-blind, third injection 1.5 μg/kg iv bolus, 5 min
[6] = double-blind, third injection 1.5 μg/kg iv bolus, 15 min
[7] = double-blind, third injection 1.5 μg/kg iv bolus, 45 min

SMILES: Nc1nc(N/N=C/C2CCCCC2)nc2c1ncn2[C@@H]1O[C@H](CO)[C@@H](O)[C@H]1O (stereo in doubt) [Binodenoson, 2-{2-[(Cyclohexyl)methylene]hydrazino}adenosine]
- changes from baseline in mean FEV1, FEV1 (% predicted), FEF25%-75%, FVC (after any injection, single- or double-blind part): No clinically significant changes from baseline
- safety and tolerability (doses up to 1.5 μg/kg): safe and well tolerated
- FEF25%-75% Mean % Change from Baseline (SD) [1]: 1.531 (5.261) %
- FEF25%-75% Mean (SD) [1]: 2.946 (0.973)
- FEV1 (% predicted) Mean % Change from Baseline (SD) [1]: 0.3 (2.4) %
- FEV1 (% predicted) Mean (SD) [1]: 88.3 (6.9) % predicted
- FEV1 (L) Mean % Change from Baseline (SD) [1]: 0.421 (2.525) %
- FEV1 (L) Mean (SD) [1]: 3.170 (0.590) L
- FVC Mean % Change from Baseline (SD) [1]: 0.055 (2.683) %
- FVC Mean (SD) [1]: 4.051 (0.824)
- FEF25%-75% Mean % Change from Baseline (SD) [2]: 1.181 (6.739) %
- FEF25%-75% Mean (SD) [2]: 2.965 (1.071)
- FEV1 (% predicted) Mean % Change from Baseline (SD) [2]: −0.1 (2.9) %
- FEV1 (% predicted) Mean (SD) [2]: 87.9 (7.7) % predicted
- FEV1 (L) Mean % Change from Baseline (SD) [2]: −0.042 (3.348) %
- FEV1 (L) Mean (SD) [2]: 3.152 (0.574) L
- FVC Mean % Change from Baseline (SD) [2]: −0.457 (3.163) %
- FVC Mean (SD) [2]: 4.021 (0.778)
- abdominal discomfort, treatment emergent AE [3]: 5%
- dizziness, treatment emergent AE [3]: 18%
- flushing, treatment emergent AE [3]: 15%
- headache, treatment emergent AE [3]: 5%
- nausea, treatment emergent AE [3]: 8%
- sinus tachycardia, treatment emergent AE [3]: 8%
- tachycardia, treatment emergent AE [3]: 31%
- changes from baseline in mean FEV1, FEV1 (% predicted), FEF25%-75%, FVC (double-blind, binodenoson 1.5 μg/kg group, after first or second injections): no clinically significant changes from baseline
- subjects who experienced AEs (double-blind, binodenoson 1.5 μg/kg subjects (placebo 19%)): 69%
- changes from baseline in mean FEV1, FEV1 (% predicted), FEF25%-75%, FVC [4]: No clinically significant changes from baseline
- treatment differences in pulmonary function versus placebo [4]: no statistically significant treatment differences
- FEF25%-75% Mean % Change from Baseline (SD) [5]: −0.877 (6.999) %
- FEF25%-75% Mean (SD) [5]: 2.913 (0.981)
- FEV1 (% predicted) Mean % Change from Baseline (SD) [5]: 0.1 (3.3) %
- FEV1 (% predicted) Mean (SD) [5]: 88.0 (8.7) % predicted
- FEV1 Mean % Change from Baseline (SD) [5]: 0.028 (3.849) %
- FEV1 Mean (SD) [5]: 3.153 (0.589)
- FVC Mean % Change from Baseline (SD) [5]: 0.186 (4.299) %
- FVC Mean (SD) [5]: 4.022 (0.746)
- FEF25%-75% Mean % Change from Baseline (SD) [6]: −0.477 (6.555) %
- FEF25%-75% Mean (SD) [6]: 2.930 (1.012)
- FEV1 (% predicted) Mean % Change from Baseline (SD) [6]: −0.3 (2.6) %
- FEV1 (% predicted) Mean (SD) [6]: 87.6 (8.5) % predicted
- FEV1 Mean % Change from Baseline (SD) [6]: −0.405 (3.079) %
- FEV1 Mean (SD) [6]: 3.137 (0.574)
- FVC Mean % Change from Baseline (SD) [6]: −0.309 (3.272) %
- FVC Mean (SD) [6]: 4.004 (0.755)
- FEF25%-75% Mean % Change from Baseline (SD) [7]: 0.388 (7.548) %
- FEF25%-75% Mean (SD) [7]: 2.940 (0.959)
- FEV1 (% predicted) Mean % Change from Baseline (SD) [7]: 0.1 (3.3) %
- FEV1 (% predicted) Mean (SD) [7]: 88.0 (8.3) % predicted
- FEV1 Mean % Change from Baseline (SD) [7]: 0.056 (3.888) %
- FEV1 Mean (SD) [7]: 3.156 (0.598)
- FVC Mean % Change from Baseline (SD) [7]: −0.133 (4.369) %
- FVC Mean (SD) [7]: 4.015 (0.780)
- FEF25%-75% Mean % Change from Baseline (SD) (double-blind, third injection 1.5 μg/kg iv bolus, 90 min): −0.335 (8.198) %

From patent publication US20110002843A1, “METHOD OF DETECTING MYOCARDIAL DYSFUNCTION IN PATIENTS HAVING A HISTORY OF ASTHMA OR BRONCHOSPASM” (priority 2005, published 2011)
